Experiments:
[1] = tested on: R-PAPRH = Papaver rhoeas (corn poppy), herbicide-resistant; assay: Greenhouse postemergence herbicidal effect; assay type: in vivo; settings: Florasulam 5 g/ha
How it was run: (§1)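 Injury was rated visually after 20-22 d on a 0 (none) to 100% (complete kill) scale relative to solvent-sprayed controls, with sub-irrigation to avoid wash-off. Rates were given in g ae/ha or g ai/ha depending on component.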

[2] = tested on: bird's-eye speedwell (VERPE, Veronica persica); assay: Greenhouse postemergence herbicidal effect; assay type: in vivo; settings: Florasulam 5 g/ha
How it was run: as §1

[3] = tested on: cleavers (GALAP, Galium aparine); assay: Greenhouse postemergence herbicidal effect; assay type: in vivo; settings: Florasulam 5 g/ha
How it was run: as §1

[4] = tested on: corn poppy (PAPRH, Papaver rhoeas); assay: Greenhouse postemergence herbicidal effect; assay type: in vivo; settings: Florasulam 5 g/ha
How it was run: as §1

[5] = tested on: cornflower (CENCY, Cyanus segetum); assay: Greenhouse postemergence herbicidal effect; assay type: in vivo; settings: Florasulam 5 g/ha
How it was run: as §1

[6] = tested on: false chamomile (MATIN, Matricaria inodora); assay: Greenhouse postemergence herbicidal effect; assay type: in vivo; settings: Florasulam 5 g/ha
How it was run: as §1

[7] = tested on: field chamomile (ANTAR, Anthemis arvensis); assay: Greenhouse postemergence herbicidal effect; assay type: in vivo; settings: Florasulam 5 g/ha
How it was run: as §1

[8] = tested on: field violet (VIOAR, Viola arvensis); assay: Greenhouse postemergence herbicidal effect; assay type: in vivo; settings: Florasulam 5 g/ha
How it was run: as §1

[9] = tested on: ivyleaf speedwell (VERHE, Veronica hederifolia); assay: Greenhouse postemergence herbicidal effect; assay type: in vivo; settings: Florasulam 5 g/ha
How it was run: as §1

[10] = tested on: purple deadnettle (LAMPU, Lamium purpureum); assay: Greenhouse postemergence herbicidal effect; assay type: in vivo; settings: Florasulam 5 g/ha
How it was run: as §1

[11] = tested on: shepherd's purse (CAPBP, Capsella bursa-pastoris); assay: Greenhouse postemergence herbicidal effect; assay type: in vivo; settings: Florasulam 5 g/ha
How it was run: as §1

[12] = tested on: turnip (BRSRR, Brassica rapa); assay: Greenhouse postemergence herbicidal effect; assay type: in vivo; settings: Florasulam 5 g/ha
How it was run: as §1

[13] = tested on: wild mustard (SINAR, Sinapis arvensis); assay: Greenhouse postemergence herbicidal effect; assay type: in vivo
How it was run: as §1

winter wheat (TRZAW) = assay: Greenhouse postemergence crop phytotoxicity; assay type: in vivo, Triticum aestivum; settings: Florasulam 5 g/ha
Text: (§2) Seeds of the desired test plant species were planted in a 90:10% v/v (volume/volume) mixture of PRO-MIX® BX (Premier Tech Horticulture, Quakertown, PA, USA) and PROFILE® GREENS GRADE™ (Profile Products LLC, Buffalo Grove, IL, USA) planting mixture, which typically has a pH of 5.2 to 6.2 and an organic matter content of at least 50 percent, in plastic pots with a surface area of 103.2 square centimeters (cm^2). In some aspects, to ensure good germination and healthy plants, a fungicide treatment and/or other chemical or physical treatment was applied. The plants were grown for 7-36 days (d) in a greenhouse with an approximate 14-hour (h) photo-period which was maintained at about 23° C. during the day and 22° C. during the night. Nutrients and water were added on a regular basis and supplemental lighting was provided with overhead metal halide 1000-Watt lamps as necessary. The plants were employed for testing when they reached the second or third true leaf stage.
(§3) Emulsifiable concentrates of each of each pyridine carboxylate herbicide (Compound A or Compound B) were prepared at 100 grams acid equivalent per liter (g ae/L). The emulsifiable concentrates also included a safener, cloquintocet-mexyl, at 120 grams active ingredient per liter (g ai/L), unless otherwise noted below. An aliquot of each emulsifiable concentrate was placed in a 25 mL glass vial and diluted with an aqueous mixture of 1.25% (v/v) ACTIROB® B esterified rapeseed oil (Bayer Crop Science, Research Triangle Park, NC, USA) or MSO® Concentrate with LECI-TECH® methylated soybean oil (Loveland Products, Loveland, CO, USA) to obtain concentrated stock solutions at the highest application rate for each herbicide, based upon a 12 milliliter (mL) application volume at a rate of 187 liters per hectare (L/ha). The concentrated stock solutions were further diluted with an aqueous mixture of 1.25% v/v ACTIROB® B or MSO® Concentrate with LECI-TECH® to obtain stock solutions at reduced application rates for each herbicide. Spray solutions of the herbicide combinations (Compound A or Compound B plus ALS herbicide) were prepared by adding weighed amounts or aliquots of the ALS herbicides to the stock solutions of Compound A or Compound B to form 12-mL spray solutions in two- or three-way combinations. […]
(§4) The treated plants and control plants were placed in a greenhouse as described above and watered by sub-irrigation to prevent wash-off of the test compounds. After 20-22 d, the condition of the test plants as compared with that of the control plants was determined visually and scored on a scale of 0 to 100 percent where 0 corresponds to no injury and 100 corresponds to complete kill.

spring wheat (TRZAS) = assay type: in vivo, Triticum aestivum
How it was run: as §1

spring barley (HORVS) = assay type: in vivo, Hordeum vulgare
How it was run: as §1

winter barley (HORVW) = assay: Greenhouse postemergence crop phytotoxicity; assay type: in vivo, Hordeum vulgare; settings: Florasulam 5 g/ha
Text: as §2, §3, §4

## COc1ncc(F)c2nc(S(=O)(=O)Nc3c(F)cccc3F)nn12 [Florasulam, florasulam]
[1]
  % visual injury: 75%
[2]
  % visual injury: 10%
[3]
  % visual injury: 95%
[4]
  % visual injury: 97%
[5]
  % visual injury: 70%
[6]
  % visual injury: 100%
[7]
  % visual injury: 70%
[8]
  % visual injury: 10%
[9]
  % visual injury: 5%
[10]
  % visual injury: 10%
[11]
  % visual injury: 80%
[12]
  Obs % visual injury: 95%
[13]; Florasulam 3.75 g/ha
  % visual injury Obs: 85%
[13]; Florasulam 5 g/ha
  % visual injury: 95%
Winter wheat (TRZAW)
  % visual injury: 0%
Spring wheat (TRZAS); Florasulam 3.75 g/ha
  % visual injury Obs: 0%
Spring wheat (TRZAS); Florasulam 5 g/ha
  % visual injury: 0%
Spring barley (HORVS); Florasulam 3.75 g/ha
  % visual injury Obs: 0%
Spring barley (HORVS); Florasulam 5 g/ha
  % visual injury: 0%
Winter barley (HORVW)
  % visual injury: 0%
